This passage reports Kd results from ChEMBL document CHEMBL5729355, “N/O-linked Degrons and Degronimers for protein degradation” (2022).

For orientation: Kd means a measure of binding affinity in units of concentration.

The experiment concerns the target Protein cereblon/DNA damage-binding protein 1 (Homo sapiens, UniProt Q96SW2). Nature of the experiment: Fluorescence Polarization (FP) Assay for Screening Compound Ligand Binders of CRBN-DDM: Measuring compound ligand binding to CRBN-DDB1 was carried out using an established sensitive and quantitative in vitro fluorescence polarization (FP) based binding assay. (See, I. J. Enyedy et al, J. Med. Chem., 44: 3134324, 2001). Compounds were dispensed from serially diluted DMSO stock into black 384-well compatible fluorescence polarization plates using an Echo acoustic dispenser. Compound binding to CRBN-DDB1 was measured by displacement of either a (−)-Thalidomide-Alexa Fluor® or Pornalidomide-fluorescein conjugated probe dye. A 20 μL mixture containing 400 nM CRBN-DDB1 and 5 nM probe dye in 50 mM Hepes, pH 7.4, 200 mM NaCl, 1% DMSO and 0.05% pluronic acid-127 acid was added to wells containing compound and incubated at room temperature for 60 min. Matching control wells excluding CRBN-DDB1 were used to correct for background fluorescence. Plates were read on an Envision plate reader with appropriate FP filter sets. […]. In kind it is protein assay.

Protein cereblon/DNA damage-binding protein 1, sequence (Q96SW2 whole entry): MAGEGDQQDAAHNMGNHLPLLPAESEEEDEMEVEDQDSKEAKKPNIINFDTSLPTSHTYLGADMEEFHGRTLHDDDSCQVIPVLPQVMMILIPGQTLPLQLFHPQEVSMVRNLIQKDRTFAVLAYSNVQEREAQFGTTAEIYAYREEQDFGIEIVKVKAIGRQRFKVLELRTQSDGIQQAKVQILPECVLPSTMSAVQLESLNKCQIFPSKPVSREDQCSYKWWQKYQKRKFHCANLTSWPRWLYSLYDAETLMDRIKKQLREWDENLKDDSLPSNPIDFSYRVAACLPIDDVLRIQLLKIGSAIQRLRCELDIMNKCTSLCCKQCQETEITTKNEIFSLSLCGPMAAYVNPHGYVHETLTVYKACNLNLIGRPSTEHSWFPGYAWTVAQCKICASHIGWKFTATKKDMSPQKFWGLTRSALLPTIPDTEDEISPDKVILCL
Protein cereblon/DNA damage-binding protein 1, sequence (Q16531 whole entry, further chain): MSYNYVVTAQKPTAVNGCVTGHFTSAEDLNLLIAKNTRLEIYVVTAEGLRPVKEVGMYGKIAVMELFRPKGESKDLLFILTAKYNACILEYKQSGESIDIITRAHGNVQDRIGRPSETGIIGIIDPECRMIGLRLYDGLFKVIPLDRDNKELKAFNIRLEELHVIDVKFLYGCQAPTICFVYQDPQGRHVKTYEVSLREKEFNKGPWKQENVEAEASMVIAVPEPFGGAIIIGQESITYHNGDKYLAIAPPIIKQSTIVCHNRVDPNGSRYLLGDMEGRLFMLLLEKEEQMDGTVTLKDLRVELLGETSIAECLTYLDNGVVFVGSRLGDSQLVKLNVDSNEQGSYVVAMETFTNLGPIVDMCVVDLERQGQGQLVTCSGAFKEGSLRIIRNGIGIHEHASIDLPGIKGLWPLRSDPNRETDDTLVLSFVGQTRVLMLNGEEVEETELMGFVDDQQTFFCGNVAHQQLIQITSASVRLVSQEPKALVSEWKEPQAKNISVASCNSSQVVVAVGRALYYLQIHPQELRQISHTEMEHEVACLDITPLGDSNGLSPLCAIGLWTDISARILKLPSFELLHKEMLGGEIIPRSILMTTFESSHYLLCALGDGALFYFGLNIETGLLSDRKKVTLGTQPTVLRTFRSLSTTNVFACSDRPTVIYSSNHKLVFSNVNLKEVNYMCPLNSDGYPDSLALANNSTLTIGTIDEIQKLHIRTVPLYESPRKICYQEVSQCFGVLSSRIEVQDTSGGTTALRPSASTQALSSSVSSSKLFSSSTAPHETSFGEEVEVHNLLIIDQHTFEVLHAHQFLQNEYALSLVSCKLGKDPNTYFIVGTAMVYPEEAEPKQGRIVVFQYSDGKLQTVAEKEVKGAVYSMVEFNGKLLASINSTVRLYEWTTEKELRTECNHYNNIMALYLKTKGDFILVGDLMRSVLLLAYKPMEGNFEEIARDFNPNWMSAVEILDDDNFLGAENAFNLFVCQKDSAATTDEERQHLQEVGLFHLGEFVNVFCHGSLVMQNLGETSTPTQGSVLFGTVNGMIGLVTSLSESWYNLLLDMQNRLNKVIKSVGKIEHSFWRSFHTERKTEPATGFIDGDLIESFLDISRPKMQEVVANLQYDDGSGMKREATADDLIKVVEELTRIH

For `Cn1c(NC2CCC(=O)NC2=O)nc2ccccc21` (stereo unspecified), the Kd is above 100 µM.
